US20250381121A1, “COMPOSITION FOR PERSONAL CARE PRODUCTS” (VAGINAL BIOME SCIENCE, INC., priority 2024, published 2025)
Where two headings read alike, the source gives them in different places.

Experiments:
[1] = system: herpes simplex virus (HSV-2); conditions: cited from earlier work
Lactobacillus crispatus = test: Growth of Lactobacillus crispatus with UV-irradiated acemannan over 24 hours; format: cell-based
Method: Growth media contained Dextrose-Free Sharpe (MRS) broth and Lactobacilli MRS Agar or an equivalent. Extract of irradiated aloe vera was further added to the MRS broth at 0.1 and 0.3% (w/v). A predetermined number of bacteria was added to each of the prepared medium and cultured at 37° C. under a suitable condition for the organism to be tested (anaerobic conditions for L. crispatus and L. gasseri). A small portion of the culture was removed at 2, 4, 6, 8, 12, 14, 16, 18, and 24 hours of culture. At each time point, collected samples containing the growing organisms are plated to quantify the live cell number.
The cell growth of Lactobacillus crispatus and Lactobacillus gasseri was determined by serial dilutions and plating to determine the bacterial counts at designated time points during the 24-h study period. Plates were cultured at 37° C. under a suitable condition for the organism to be tested (anaerobic conditions for L. crispatus and L. gasseri). Bacterial colonies were quantified at 0 and 16 hours after incubation.
The experiments were carried out using the method described above for EXAMPLE 4. Lactobacillus crispatus was cultured in the presence of varying concentrations (0.1%, 0.2%, 0.3%, 0.5%) of UV-irradiated acemannan or a negative control over a 24-hour period. Bacterial growth was quantified at 10 time points (0-24 hours) using log-scaled CFU/mL equivalents.

Question: For “polyethylene glycol [polyethylene glycol (PEG-8)]”, which “susceptibility to herpes simplex virus (HSV-2)” value (shortened to “susceptibility”) ([1]; in vivo) is on record?
Answer: markedly increased

Question: For `CCCCCCCCCCCC(=O)OCC(O)CO` (stereo not drawn) [glycerol monolaurate (GML), glycerol monolaurate], which “susceptibility” value ([1]; 5% as a colloidal suspension in phosphate buffered saline, single exposure) is on record?
Answer: markedly increased

Question: What about the “susceptibility” value ([1]; 5% formulated in K-Y Warming Jelly, single exposure) of the same molecule?
Answer: markedly increased

Question: Which “susceptibility” value ([1]; in vivo) does the source give for `CC(O)CO` (stereo not drawn) [propylene glycol] here?
Answer: markedly increased

Question: Which “enhancement of L. crispatus growth compared with negative control” value (Lactobacillus crispatus; 0.3% acemannan, at 10 hours (p<0.05)) does the source give for acemannan here?
Answer: significant enhancement of growth

Question: What about the “stimulation of L. crispatus growth over negative control” value (Lactobacillus crispatus; 0.5% acemannan, significant at 6, 8, 10 and 18 hours (p<0.05)) of the same molecule?
Answer: most robust and consistent stimulation
